Among the data in the OPERA property sets (Mansouri et al. 2018) are logP values, retold here.

What is called logP is a log measure of how a compound divides between an organic and an aqueous phase. Lower therefore signals lower lipophilicity.

In turn, `COP(=O)(NCC(C)C)Oc1cc(Cl)c(Cl)cc1Cl` (centres undefined) displayed a logP of 3.86.
The same measure for `CCCNC(=NC#N)NC`: 0.42; for `O=C(c1ccncc1)c1ccc(O)cc1`: 1.37; for `CNP(=O)(OC)Oc1cc(Cl)c(Cl)cc1Cl` (centres undefined): 3.06.
Take `CCCSC1OC(CO)C(O)C(O)C1O` (centres undefined): the logP was -1.18.
`COC(=O)COc1c(OC)cc(Cc2cnc(N)nc2N)cc1OC` returned a log partition coefficient (logP) of 0.55.
Compound `COc1ccc(Cc2cnc(N)nc2N)cc1Cl` displayed a logP of 1.65.
For `OCC1OC(Oc2ccccc2I)C(O)C(O)C1O` (centres undefined), the lipophilicity (logP) was found to be 0.27.
As to `Cc1cccc(OC2OC(CO)C(O)C(O)C2O)c1` (centres undefined), the logP is -0.2.
On to `CCCCCCCCOn1c(=O)[nH]c(C)c(Br)c1=O`, for which the lipophilicity (logP) is 3.39.
For the compound `COc1cc(OC)c(CC(C)N)c(OC)c1` (centres undefined), the logP turned out to be 1.57.
The compound `NC1CC2CC1c1ccc(C(F)(F)F)cc12` (centres undefined) showed a logP of 2.91.
In turn, `Nc1cc(OCC(=O)O)ccc1Cl` came in with a logP of 1.16.
The same measure for `COc1cc(S(=O)(=O)CCO)cc(OC)c1OC`: 0.18; for `CON(C)C(=O)Nc1cccc(OCc2ccccc2)c1`: 3.11; for `COc1ccc(C(N)=O)cc1N=NN(C)C`: 0.44.
In turn, `Nc1ccccc1OC1OC(CO)C(O)C(O)C1O` (centres undefined) registered a lipophilicity (logP) of -1.23.
Regarding `CCN1CCCCCC1=O`, the logP was 0.65.
The compound `COCN1C(=O)CN=C(c2ccccc2)c2cc(Cl)ccc21` gave a lipophilicity (logP) of 2.86.
`COP(=O)(OC)Oc1ccccc1` had a log partition coefficient (logP) of 1.22.
The result for `c1ccc(Sc2nnc[nH]2)cc1` reads 1.45; that for `COc1cc(C=C[N+](=O)[O-])ccc1O`, 1.88; that for `CC(C)n1nnc2ccccc21`, 1.98.
The result for `COCCOc1ccccc1OCCOC` reads 1.12; that for `CC(=O)Nc1ccc(OC(=O)CBr)cc1`, 1.08; that for `CCC(C)N(C)/N=N/c1nc[nH]c1C(N)=O` (centres undefined), 1.08.
Regarding `CN(C)c1nc2ccccc2o1`, the log partition coefficient (logP) came to 2.1.
`NC(=O)N(CCCN(N=O)C(N)=O)N=O`: the logP was -0.3.
The result for `CCCNP(=O)(OC)SC` (centres undefined) reads 0.65; that for `CCC12CC3CC(N)(C1)CC(CC)(C3)C2`, 4.36; that for `NC(=O)Nc1ccc(Oc2ccc(Br)cc2)cc1`, 3.7.
Regarding `CNP(=O)(OC)Oc1cccc(C(C)(C)C)c1` (centres undefined), the logP stood at 2.65.
As to `O=C1CN=C(c2ccccc2F)c2cc(Cl)ccc2N1`, the logP was 2.7.
Compound `CN(C)C(=O)CCc1ccco1` came in with a logP of 0.62.
As for `CNC(=O)Oc1ccc(S(C)(=O)=O)cc1`, the logP is 0.34.
The same measure for `Clc1ccc(Cl)c(-c2ccccc2)c1Cl`: 5.67; for `[O-][n+]1ccc(Cl)c2ccccc21`: 1.08.
The same measure for `CCCCC1OC(=O)c2cc([N+](=O)[O-])ccc21` (centres undefined): 2.92; for `CCOC(=O)c1ccc2cccccc1-2`: 3.83.
For `CCN1C(=O)CN=C(c2ccccc2)c2cc(N)ccc21`, the lipophilicity (logP) was found to be 1.81.
For `COc1cccc(C2=NCC(=O)Nc3ccc(Cl)cc32)c1`, the lipophilicity (logP) was determined as 3.14.
`O=C1C=C(Nc2ccccc2)C(=O)c2ccccc21` returned a lipophilicity (logP) of 2.84.
In turn, `FC1C(Cl)C(Cl)C(Cl)C(Cl)C1Cl` (centres undefined) displayed a lipophilicity (logP) of 3.19.
Consider `O=[N+]([O-])c1ccc(/C=C/c2nnc[nH]2)o1`, for which the log partition coefficient (logP) was determined as 1.1.
`COC(=O)C(C#N)=NNc1cc(Cl)c(Cl)c(Cl)c1` returned a logP of 5.22.
Compound `O=C(O)COc1cccc(S(F)(F)(F)(F)F)c1` came in with a lipophilicity (logP) of 2.78.
For `CC1(C)N=C(N)N=C(N)N1c1ccc(I)cc1`, the logP turned out to be 1.39.
In turn, `CON=CCCc1ccccc1` registered a logP of 2.14.
The result for `Cc1cc(-n2c(=O)cc(C)n2C)nc(C)n1` reads 0.24; that for `O=C(NC(CO)C(O)c1ccccc1)C(Cl)Cl` (centres undefined), 0.94; that for `COCN1C(=O)CN=C(c2ccccc2)c2cc([N+](=O)[O-])ccc21`, 2.05.
The same measure for `O=[N+]([O-])c1cc[n+]([O-])c2c([N+](=O)[O-])cccc12`: 0.76.
The result for `COC1C(Cl)C(Cl)C(Cl)C(Cl)C1OC` (centres undefined) reads 2.82; that for `OCC1OC(Sc2ccccc2)C(O)C(O)C1O` (centres undefined), -0.56.
On to `Cc1ccccc1C(=N)c1ccccc1`, for which the logP is 3.21.
With `CCOC(=O)CCCCn1nnc2ccccc21`, the lipophilicity (logP) was determined as 2.2.
Compound `COc1ccc(C=C[N+](=O)[O-])cc1` showed a log partition coefficient (logP) of 2.2.
Compound `CCOCC(O)Cn1ccnc1[N+](=O)[O-]` (centres undefined) gave a logP of 0.04.
Compound `CC(=O)NC1CC1c1ccccc1` (centres undefined) showed a logP of 1.43.
`CCOC(=O)CCCCCN1C(=O)C=CC1=O`: the logP came out at 1.5.
As to `CC1=C(C(=O)O)SCCO1`, the logP amounted to 0.04.
`CCCCNP(=O)(OC)Oc1cc(Cl)c(Cl)cc1Cl` (centres undefined) returned a lipophilicity (logP) of 4.18.
Consider `COc1ccc(Cc2cnc(N)nc2N)cc1`, for which the logP turned out to be 1.34.
Take `Cc1cccc2c1ncc[n+]2[O-]`: the log partition coefficient (logP) was 1.2.
For the compound `O=C(O)C1c2ccccc2Cc2ccccc21`, the logP was found to be 2.78.
`COc1cc(-n2c(=O)cc(C)n2C)nc(C)n1` yielded a log partition coefficient (logP) of 0.7.
`CCNNC(=O)COc1ccc(Cl)cc1` registered a log partition coefficient (logP) of 1.73.
On to `CCC(=O)Cn1ccnc1C=Cc1occc1[N+](=O)[O-]`, for which the logP amounted to 1.27.
Take `CCCCc1nnc(N)o1`: the lipophilicity (logP) is 0.65.
Consider `NNc1ncnc2ccccc12`, for which the logP stood at 1.67.
`CS(=O)(=O)CCn1ccnc1[N+](=O)[O-]`: the logP was -1.3.
Compound `CNC1CC2OC1c1ccccc12` (centres undefined) yielded a log partition coefficient (logP) of 0.91.
`CCCCCCCCCCCC[n+]1ccccc1C.[I-]` had a logP of 1.32.
The same measure for `CC(=O)C(C#N)=NNc1ccc([N+](=O)[O-])cc1[N+](=O)[O-]`: 3.4; for `CCOc1cc(Cc2cnc(N)nc2N)cc(OCC)c1N`: 1.69; for `O=S1(=O)N=C(c2ccccc2)Nc2ccccc21`: 1.78.
With `O=NN(CCF)C(=O)NC1CCSCC1`, the logP was 1.43.
In turn, `CC1=Nc2ccc(Br)cc2S(=O)(=O)N1` showed a logP of 1.37.
With `CSC(C)=NOC(=O)N(C)SN(C)C(=O)OC(C)(C)C`, the logP worked out at 2.8.
The compound `CNc1cc(Cc2cnc(N)nc2N)cc(N(C)C)c1OC` yielded a logP of 1.56.
The result for `CSC(C)=NOC(=O)N(C)SN(C)C(=O)C1CC1` reads 1.7; that for `OCCCCCn1nnc2ccccc21`, 1.51.
`O=S1(=O)NC(C2CCC2)=Nc2ccc(Cl)cc21` gave a logP of 2.24.
Turning to `CCCCCCCCCC[n+]1ccc(C)cc1C.[I-]`, the logP was found to be 0.54.
For the compound `C[N+](C)(C)Cc1cccc([N+](=O)[O-])c1.[Br-]`, the logP is -2.66.
The result for `CNc1ccc(S(N)(=O)=O)cc1` reads 0.08; that for `CSC(C)=NOC(=O)N(C)SN(C)C(=O)c1ccc(C)cc1`, 2.5; that for `NN=C1c2ccccc2C(=O)C1C(=O)C(c1ccccc1)c1ccccc1` (centres undefined), 3.62.
`CSc1nnc(C2CCCCO2)c(=O)n1N` (centres undefined) yielded a lipophilicity (logP) of 0.38.
Take `CC1=Nc2c(C)cccc2S(=O)(=O)N1`: the log partition coefficient (logP) turned out to be 0.52.
The same measure for `CC(=O)Nc1ccc(O)c(C)c1`: 0.79.
For `COc1ccccc1C(=O)NCCCN(C)C`, the logP worked out at 1.27.
For the compound `NNC(=O)c1ccc(O)cc1`, the logP is -0.33.
Turning to `COc1ccccc1C(=O)NCCCN`, the lipophilicity (logP) was 0.2.
The result for `Clc1ncnc2sccc12` reads 1.79.
On to `NC(=O)NC1OC(=O)c2ccccc21` (centres undefined), for which the log partition coefficient (logP) turned out to be 0.49.
The compound `O=C(NC(CO)C(O)c1ccc([N+](=O)[O-])cc1)c1ccccc1` (centres undefined) had a logP of 1.63.
`COc1ccc2c(c1)C(c1ccccc1)=NCC(=O)N2` gave a lipophilicity (logP) of 2.24.
As to `C[N+](C)(C)Cc1cccc(C(N)=O)c1.[Br-]`, the log partition coefficient (logP) was -2.8.
`CNC(=O)ON=CC(C)(C)[N+](=O)[O-]`: the lipophilicity (logP) came to 0.36.
The same measure for `COc1cccc(NC=O)c1`: 1.25; for `O=C(CN1CCCCC1)Nc1ccccc1Cl`: 2.76; for `COc1cc(CC(=O)O)ccc1OCC1CCCCC1`: 3.35.
Regarding `CCCCN(CCCC)CCS(=O)(=O)c1cc(OC)c(OC)c(OC)c1`, the logP stood at 3.55.
Consider `O=S(=O)(Nc1ccc(Cl)cc1)C(F)(F)F`, for which the logP amounted to 3.96.
With `CCOC(=O)C(=Cc1cccc(OC)c1OC)C(C)=O`, the logP worked out at 2.21.
On to `CCCCCCCC[n+]1ccc(C)cc1C.[I-]`, for which the lipophilicity (logP) was -0.57.
`COc1ccc(Cc2cnc(N)nc2N)cc1N` registered a log partition coefficient (logP) of 0.76.
The same measure for `CSC(C)=NOC(=O)N(C)SN(C)C(=O)OC1CCCCC1`: 3.6; for `CCCOc1cccc(O)c1`: 2.59; for `COc1cc(C)n(-c2nc(C)cc(C)n2)n1`: 1.82.
`CN1C(=Nc2ncc([N+](=O)[O-])s2)NCC1(C)C` gave a logP of 2.35.
`Cc1ccccc1C(=O)NN`: the logP amounted to 0.22.
`Nc1ncc(Cc2cc(Cl)c(Cl)c(Cl)c2)c(N)n1` displayed a logP of 3.64.
The same measure for `CCCCC(=O)NN`: -0.11; for `O=NN(CCCl)C(=O)NC1CCSCC1`: 2.07; for `CCCNc1c([N+](=O)[O-])cc(C(F)(F)F)cc1[N+](=O)[O-]`: 3.65.
The same measure for `O=C(O)COc1ccccc1-c1ccccc1`: 2.83; for `CNC1C2CCC1c1ccccc12` (centres undefined): 2.37.
Consider `CC(=O)Nc1cccc(N=NN(C)C)c1`, for which the logP is 1.61.
For the compound `O=C(O)Cc1ccc(S(=O)(=O)F)cc1`, the logP is 1.86.
With `Clc1ccc(Cl)c(-c2cc(Cl)cc(Cl)c2Cl)c1`, the lipophilicity (logP) is 6.79.
Turning to `CC(C)(C)NC(=O)NN`, the lipophilicity (logP) is -0.81.
`COP(=O)(OC)Oc1ccc([N+](=O)[O-])c(Cl)c1` gave a lipophilicity (logP) of 1.83.
Consider `CC(C)CC1=Nc2cc(Cl)ccc2S(=O)(=O)N1`, for which the logP was 2.35.
In the case of `CC1(C)SC2C(NC(=O)C(NS(C)(=O)=O)c3ccccc3)C(=O)N2C1C(=O)O` (centres undefined), the lipophilicity (logP) is 0.95.
On to `COc1cc(OC)c(OC)cc1Cc1cnc(N)nc1N`, for which the lipophilicity (logP) came to 1.17.
As to `Cc1cc(C)c(NC2=NCCN2)c(C)c1`, the log partition coefficient (logP) is 2.32.
With `COP(=O)(OC)Oc1cc(C)c([N+](=O)[O-])c(C)c1`, the log partition coefficient (logP) stood at 2.57.
